The text below walks through data of patent US9567629B2, “Labeled enzyme compositions, methods and systems” (LIFE TECHNOLOGIES CORPORATION, priority 2009, dated 2017).

For experiment [1], the system named is [enzyme•DNA•nucleotide] ternary complex with AF647-C6-dG6P. Briefly: Stopped-flow measurements of t−1 (nucleotide dissociation from ternary complex). The experiment is classed as biochemical. Conditions: 330 nM polymerase, 100 nM duplex, 7 μM AF647-C6-dG6P, chase 50 μM non-labeled dNTP, 2 mM MnCl2. As to the method: The stopped-flow techniques for measuring t−1 (1/k−1) followed the techniques described by M. Bakhtina (2009 Biochemistry 48:3197-3208).
The rate of the nucleotide dissociation (k1) from the ternary complex of [enzyme•DNA•nucleotide] was measured in an Applied Photophysics SX20 stopped-flow spectrometer by monitoring changes […] a duplex Alexa fluor 546 dye-labeled-DNA template following the mixing of the [enzyme•DNA•labeled nucleotide] ternary complex with 50 μM cognate non-labeled deoxynucleoside triphosphate in a buffer containing 50 mM Tris-HCl (pH 7.5), 50 mM NaCl, 4 mM DTT, 0.2% BSA, and 2 mM MnCl2.
The ternary complexes were prepared using: 330 nM polymerase, 100 nM template/primer duplex, and 7 μM terminal phosphate-labeled nucleotides (AF647-C6-dG6P).
The averaged stopped-flow fluorescence traces (>1.5 msec) were fitted with a single exponential equation (2) to extrapolate the rate of the nucleotide dissociation (k−1) from the [enzyme•DNA•nucleotide] ternary complex. Fluorescence=A1*e^−k−1*t+C (equation 2) where A1 represents the corresponding fluorescence amplitude, C is an offset constant, and k−1 and the observed rate constants for the fluorescence transition.

Experiment [2] has as its system dye-labeled primer-template duplex with AF647-C6-dG6P. Description: Stopped-flow measurements of tpol (nucleotide incorporation kinetics). The experiment is classed as biochemical. The conditions noted are these: 330 nM polymerase, 100 nM template/primer duplex, 7 μM AF647-C6-dG6P, 2 mM MnCl2. As to the method: In this example, the t−1 and tpol values of a Phi-29 polymerase comprising the amino acid sequence of SEQ ID NO: 3 and a B103 polymerase comprising the amino acid sequence of SEQ ID NO: 34 (referred to as “mB103” in the table below) and including amino acid substitutions at various positions were measured using a stopped-flow procedure. The stopped-flow techniques for measuring tpol (1/kpol) followed the techniques described by MP Roettger (2008 Biochemistry 47:9718-9727; M. Bakhtina 2009 Biochemistry 48:3197-320).
The template sequence (SEQ ID NO: 44) further included an Alexa Fluor 546 dye moiety bonded to the 5′ position of the template.
The kinetics of nucleotide incorporation by each polymerase was measured in an Applied Photophysics SX20 stopped-flow spectrometer by monitoring changes in fluorescence from the dye-labeled primer-template duplex complexed to enzyme, following the mixing of the enzyme-DNA complex with dye-labeled nucleotides. […]
The primer and template were annealed to form a dye-labeled primer-template duplex using standard methods. […] The dye-labeled nucleotide AF647-C6-dG6P was then added to a final concentration of 7 μM, and the resulting fluorescence was monitored over time. […]

Take “Phi-29 (exo−): exonuclease-minus Phi-29 polymerase (Phi-29 polymerase comprising SEQ ID NO: 3) [reference compound]”: the “t−1” value in experiment [1] amounted to 27. The tpol in experiment [2] is on record as 11.
